{
  "source": "patent US20180125993A1",
  "about": "(BEIJING COTIMES BIOTECH COMPANY LIMITED, priority 2014, published 2018)",
  "key": {"colon cancer, CS146, 2#": {"system": "colon cancer, CS146, 2#", "experiment": "Patients primary tumor tissue subcutaneous model (Day 30 after treatment)", "assay_type": "in vivo, nude mice", "conditions": "HuCTB006 10 mg/kg i.v. QW × 6w alone", "source_text": "Fresh primary tumor tissues from patients were implanted in NOD/SCID mice's flank, which developed into a primary tumor, which was then transferred to the nude mice's flank to allow the tumor reaching an exponential growth phase, and the tumor was named 1# tumor, and so on. When the tumor volume and number reached passage requirements, they were implanted into the right flank of nude mice. When the tumors' average volumes reached 100-200 mm^3, the mice were grouped.\nThe bodyweight and major/minor axis of mice were measured twice a week, and Tumor Growth Inhibition (TGI) and tumor volume were calculated same as in 5.1.5. In addition, to evaluate the synergetic effect of drug combination in tumor growth, Jin Zhengjun Q value judgment method was used with the follow formula: Q=Ea+b/(Ea+Eb−Ea×Eb). Ea+b is the inhibition ratio of drug combination, Ea and Eb are the inhibition ratio of each of drug treatment when it is administered alone. […] The animals were monitored, and when the experiments were concluded, mice were sacrificed and tumors were extracted and weighted. All the animal experiments confer to the regulations of animal's welfare and the management of experimental animal usage.\nTumor volumes were represented with average±standard error. Data analysis was done using Spss16.0, One-Way ANOVA, LSD (homogeneity of variance) or Dunnett T3 (non-homogeneity of variance). […]"}, "7901": {"system": "7901", "experiment": "In vitro cytotoxic sensitivity of CTB006", "assay_type": "cell-based, human", "conditions": "7901, Stomach cancer"}, "ZR-75-30": {"system": "ZR-75-30", "experiment": "In vitro cytotoxic sensitivity of CTB006", "assay_type": "cell-based, human", "conditions": "ZR-75-30, Breast cancer"}, "Huh-7": {"system": "Huh-7", "experiment": "In vitro cytotoxic sensitivity of CTB006", "assay_type": "cell-based, human", "conditions": "Huh-7, Liver cancer"}, "Colo205": {"system": "Colo205", "experiment": "Human colon cancer Colo205 subcutaneous model (Day 28 after treatment)", "assay_type": "in vivo, nude mice", "conditions": "for TGI calculated using the tumor volume / TGI calculated using the tumor weights: repeated experiment", "protocol": "Tumor cells (i.e., MIA-PaCa-2, WiDr, H2122, colo205) were inoculated in nude mice's flank at 5×10^6 cells per mouse. The mice were grouped when the average volume of tumors reached about 100˜200 mm^3. “QW”=weekly dose. “Q3d”=dosed every third day. “BiW”=biweekly.\nThe bodyweight and major/minor axis of the mice were measured twice a week, and the tumor volumes were calculated using the formula: Tumor volume=1/2×major axis[…]. […] “T” represents average tumor volume of the experimental group (cm^3), and “C” represents average tumor volume of the control group (cm^3). The animals were monitored at all times. The bodyweight and major/minor axis or mice were measured twice a week.\nTumor volumes were represented with average±standard error. […] P<0.05 represents significant difference."}, "BT-20": {"system": "BT-20", "experiment": "In vitro cytotoxic sensitivity of CTB006", "assay_type": "cell-based, human", "conditions": "BT-20, Breast cancer"}, "Raji": {"system": "Raji", "experiment": "In vitro cytotoxic sensitivity of CTB006", "assay_type": "cell-based, human", "conditions": "B cell lymphoma"}, "Panc2.03": {"system": "Panc2.03", "experiment": "Cytotoxicity on human tumor cell lines (ATPLite Assay Kit)", "assay_type": "cell-based", "conditions": "Panc2.03, Pancreatic cancer", "protocol": "(§1) Eighteen human tumor cell lines were treated with 62.5, 125, 250, 500, or 1000 ng/mL HuCTB006 or different concentrations of chemotherapy drugs, which act as positive controls. […] The culture medium for SK-Hep-1, HepG2, HCT116, SW480, WiDr (1×NEAA), MIA-PaCa-2 (2.5% Horse serum) MDA-MB-231 (1 mM NaPyr, 1×MEM-NEAA, 1×MEM VITAMIN) was DMEM. The culture medium for COLO205, BXPC3 (2 mM glutamin, 10 mM HEPES), Panc2.03 (15FBS, 1 mM NaPyr, 1×MEM-NEAA, […], 10 mM HEPES), H2122, OVCAR3 (1 mM NaPyr, 10 ug/ml human insulin, 10 mM HEPES, 2.5 g/L glucose), Molt-4 (HEPES, 2.5 g/l glocose), Jurkat (HEPES, 2.5 g/l glocose) was RPMI-1640, the culture medium for SK-MES-1 was Eagle's MEM, the culture medium for 2-LMP and DY36T2 was IMEM, and the culture medium for SUM102 (5 ug/ml insulin) was F-12K. The cell viability was determined by ATPLite Assay Kit. If the IC50 value was lower than 62.5 ng/mL, the cells were treated with higher concentration of CTB006 in the second round of experiments to determine IC50 value."}, "2-LMP": {"system": "2-LMP", "experiment": "Cytotoxicity on human tumor cell lines (ATPLite Assay Kit)", "assay_type": "cell-based", "conditions": "Breast cancer", "protocol": "as §1"}, "SUM102": {"system": "SUM102", "experiment": "Cytotoxicity on human tumor cell lines (ATPLite Assay Kit)", "assay_type": "cell-based", "conditions": "SUM102, Breast cancer", "protocol": "as §1"}, "MIA-PaCa-2": {"system": "MIA-PaCa-2", "experiment": "Cytotoxicity on human tumor cell lines (ATPLite Assay Kit)", "assay_type": "cell-based", "conditions": "MIA-PaCa-2, Pancreatic cancer", "protocol": "as §1"}, "PANC-1": {"system": "PANC-1", "experiment": "In vitro cytotoxic sensitivity of CTB006", "assay_type": "cell-based, human", "conditions": "PANC-1, Pancreatic cancer"}, "NUGC3": {"system": "NUGC3", "experiment": "In vitro cytotoxic sensitivity of CTB006", "assay_type": "cell-based, human", "conditions": "NUGC3, Stomach cancer"}, "[1]": {"conditions": "HuCTB006 0.2 mg/kg i.v. QW × 4W"}, "[2]": {"conditions": "HuCTB006 0.2 mg/kg i.v. QW × 4W, 0.2 mg/kg"}, "[3]": {"conditions": "HuCTB006 0.6 mg/kg i.v. QW × 4W"}, "[4]": {"conditions": "HuCTB006 1.8 mg/kg i.v. QW × 4W"}, "[5]": {"conditions": "HuCTB006 5.4 mg/kg i.v. QW × 4W"}},
  "data": [
    {"substance": "HuCTB006: Monospecific humanized chimeric monoclonal antibody directed to TRAIL-R2 receptor; heavy chain SEQ ID NO: 14, light chain SEQ ID NO: 12", "values": [
      {"measurement": "inhibitory effect on the growth of CS146", "setting": "colon cancer, CS146, 2#", "value": "did not"},
      {"measurement": "In vitro cytotoxic sensitivity of CTB006", "setting": "7901", "value": "Non-responder"},
      {"measurement": "In vitro cytotoxic sensitivity of CTB006", "setting": "ZR-75-30", "value": "Non-responder"},
      {"measurement": "In vitro cytotoxic sensitivity of CTB006", "setting": "Huh-7", "value": "Non-responder"},
      {"measurement": "T/C % (Calculated using tumor volume)", "setting": "Colo205; [1]", "value": 66.90, "unit": "%"},
      {"measurement": "Time of tumor volume changed significantly", "setting": "Colo205; [1]", "value": "10 Days after first treatment"},
      {"measurement": "Tumor Volume Mean ± SEM", "setting": "Colo205; [1]", "value": "1.24 ± 0.20", "unit": "cm^3"},
      {"measurement": "Tumor weight Mean ± SEM", "setting": "Colo205; [1]", "value": "0.84 ± 0.14", "unit": "g"},
      {"measurement": "TGI (Calculated using tumor volume)", "setting": "Colo205; [2]", "value": 35.62, "unit": "%"},
      {"measurement": "TGI (Calculated using tumor weight)", "setting": "Colo205; [2]", "value": 33.30, "unit": "%"},
      {"measurement": "T/C % (Calculated using tumor volume)", "setting": "Colo205; [3]", "value": 14.41, "unit": "%"},
      {"measurement": "Tumor Volume Mean ± SEM", "setting": "Colo205; [3]", "value": "0.29 ± 0.13", "unit": "cm^3"},
      {"measurement": "Tumor weight Mean ± SEM", "setting": "Colo205; [3]", "value": "0.20 ± 0.10", "unit": "g"},
      {"measurement": "T/C % (Calculated using tumor volume)", "setting": "Colo205; [4]", "value": 19.91, "unit": "%"},
      {"measurement": "Tumor Volume Mean ± SEM", "setting": "Colo205; [4]", "value": "0.38 ± 0.16", "unit": "cm^3"},
      {"measurement": "Tumor weight Mean ± SEM", "setting": "Colo205; [4]", "value": "0.23 ± 0.12", "unit": "g"},
      {"measurement": "T/C % (Calculated using tumor volume)", "setting": "Colo205; [5]", "value": 14.80, "unit": "%"},
      {"measurement": "Time of tumor volume changed significantly", "setting": "Colo205; [5]", "value": "7~10^2 Days after first treatment"},
      {"measurement": "Tumor Volume Mean ± SEM", "setting": "Colo205; [5]", "value": "0.28 ± 0.10", "unit": "cm^3"},
      {"measurement": "Tumor weight Mean ± SEM", "setting": "Colo205; [5]", "value": "0.15 ± 0.07", "unit": "g"},
      {"measurement": "Bodyweights", "setting": "Colo205; all HuCTB006 treatment groups", "value": "did not show any notably changes"},
      {"measurement": "Tumor regression", "setting": "Colo205; first experiment, treatment groups", "value": "four animals of HuCTB006 treatment groups showed tumor regression"},
      {"measurement": "TGI calculated using the tumor volume", "setting": "Colo205; HuCTB006 0.2 mg/kg", "value": 56.16, "unit": "%"},
      {"measurement": "TGI calculated using the tumor weights", "setting": "Colo205; HuCTB006 0.2 mg/kg", "value": 58.68, "unit": "%"},
      {"measurement": "TGI calculated using the tumor volume", "setting": "Colo205; HuCTB006 0.6 mg/kg", "value": 79.75, "unit": "%"},
      {"measurement": "TGI calculated using the tumor weights", "setting": "Colo205; HuCTB006 0.6 mg/kg", "value": 82.34, "unit": "%"},
      {"measurement": "TGI calculated using the tumor volume", "setting": "Colo205; HuCTB006 1.8 mg/kg", "value": 93.65, "unit": "%"},
      {"measurement": "TGI calculated using the tumor weights", "setting": "Colo205; HuCTB006 1.8 mg/kg", "value": 94.33, "unit": "%"},
      {"measurement": "TGI calculated using the tumor volume", "setting": "Colo205; HuCTB006 5.4 mg/kg", "value": 87.12, "unit": "%"},
      {"measurement": "TGI calculated using the tumor weights", "setting": "Colo205; HuCTB006 5.4 mg/kg", "value": 89.90, "unit": "%"},
      {"measurement": "In vitro cytotoxic sensitivity of CTB006", "setting": "BT-20", "value": "Non-responder"},
      {"measurement": "In vitro cytotoxic sensitivity of CTB006", "setting": "Raji", "value": "Non-responder"},
      {"measurement": "In vitro cytotoxic sensitivity of CTB006", "setting": "Panc2.03", "value": "Partial-responder"},
      {"measurement": "In vitro cytotoxic sensitivity of CTB006", "setting": "2-LMP", "value": "Responder"},
      {"measurement": "In vitro cytotoxic sensitivity of CTB006", "setting": "SUM102", "value": "Partial-responder"},
      {"measurement": "In vitro cytotoxic sensitivity of CTB006", "setting": "MIA-PaCa-2", "value": "Responder"},
      {"measurement": "In vitro cytotoxic sensitivity of CTB006", "setting": "PANC-1", "value": "Non-responder"},
      {"measurement": "In vitro cytotoxic sensitivity of CTB006", "setting": "NUGC3", "value": "Partial-responder"}
    ]}
  ]
}
